Source: publication PMC9821843, “Powerful Potential of Polyfluoroalkyl-Containing 4-Arylhydrazinylidenepyrazol-3-ones for Pharmaceuticals” (Molecules, 2022)
Converted amounts (≈) assume the structure as drawn. Where two headings read alike, the source gives them in different places.

Tests used:
[1] = test system: Trichophyton rubrum RCPF F 1408; assay: Antifungal susceptibility testing, T. rubrum; conditions: Trichophyton rubrum, RCPFF1408, read-out: MIC for fungi strains inhibition, T. rubrum
Description: (§3) The solvent was DMSO. […] In each test, a growth control and a sterility control were used.

[2] = Oxygen radical absorbance capacity (ORAC-FL) assay; conditions: n.a. = inactive; i.t.s. = interferes with test system
Procedure, shortened: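 Fluorescein oxidative degradation by the peroxyl radical generator AAPH is monitored in the presence of test compound, a HAT-based read-out. Activity is expressed relative to Trolox as reference antioxidant.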

[3] = test system: Microsporum canis RCPF F 1643/1585; assay: Antifungal susceptibility testing, M. canis; conditions: Microsporum canis, RCPFF1643/1585, read-out: MIC for fungi strains inhibition, M. canis
Description: as §3

[4] = Acute toxicity evaluation in mice (ip); conditions: CD-1, mouse, in vivo, 300 mg/kg
Description: The toxicity evaluation was performed on CD-1 mice. […] The tested compounds in 1% starch mucilage were injected intraperitoneally into three mice. Then, animals were observed during 14 days, the number of deaths was counted and % of viability calculated.

[5] = test system: Neisseria gonorrhoeae ATCC 49226/NCTC 12700; assay: Antibacterial activity against Neisseria gonorrhoeae; assay type: cell-based; conditions: read-out: MIC against Neisseria gonorrhoeae
[6] = molecular target: T1, human erythrocyte acetylcholinesterase (AChE, EC 3.1.1.7) (Homo sapiens, UniProt P22303); assay: Inhibition of human erythrocyte acetylcholinesterase (Ellman assay); assay type: biochemical; conditions: read-out: Inhibition % at 20 µM, Human AChE
T1 construct: human erythrocyte acetylcholinesterase (AChE, EC 3.1.1.7); purchased Sigma-Aldrich (Saint Louis, MO, USA); host or cells: human erythrocytes
Text: (§1) The following enzymes were purchased from Sigma-Aldrich (Saint Louis, MO, USA): porcine liver carboxylesterase (CES, EC 3.1.1.1), human erythrocyte acetylcholinesterase (AChE, EC 3.1.1.7) and equine serum butyrylcholinesterase (BChE, EC 3.1.1.8). Substrates for CES, AChE and BChE were 4-nitrophenyl acetate (4-NPA), acetylthiocholine iodide (ATCh) and butyrylthiocholine iodide (BTCh), respectively, and the colorimetric reagent for the AChE and BChE assays was 5,5’-dithio-bis-(2-nitrobenzoic acid) (DTNB) (Sigma-Aldrich). All the kinetic experiments were performed under standard conditions, according to the protocol of IPAC RAS for a reversible inhibitors study.
Reagent blanks consisted of reaction mixtures without enzyme to assess non-enzymatic hydrolysis of substrates.
Test compounds were dissolved in DMSO. Reaction mixtures contained a final DMSO concentration of 2% (v/v). […] Measurements were performed in a Bio-Rad Benchmark Plus microplate reader. Each experiment was performed in triplicate. Plots, linear regressions and values of IC50, were determined using Origin 6.1 for Windows, OriginLab (Northampton, MA, USA).

[7] = test system: Epidermophyton floccosum RCPF F 1659/17; assay: Antifungal susceptibility testing, E. floccosum; conditions: Epidermophyton floccosum, RCPFF1659/17, read-out: MIC for fungi strains inhibition, E. floccosum
Description: as §3

Sprague-Dawley (SD) rats = assay: Hot plate test (analgesic activity); assay type: in vivo; conditions: Rattus norvegicus, hot plate test, rats, ip, dose 15 mg/kg, n.a. = inactive (p > 0.05)
Procedure, shortened: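 Test compounds were given i.p. as suspensions in 1% starch mucilage to SD rats (3 male, 3 female per group), vehicle as negative control. At 1 and 2 h post-dose, latency to nociceptive response (jumping, hind paw licking/shaking) on a 50 °C plate was recorded, 30 s cutoff.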

[8] = molecular target: porcine liver carboxylesterase (CES, EC 3.1.1.1) (Sus scrofa, UniProt Q29550); assay: Inhibition of porcine liver carboxylesterase (4-NPA colorimetric assay); assay type: biochemical; conditions: 20 µM; n.a. = inactive at 20 µM; mean ± SEM, n = 3
Text: as §1
The CES (porcine liver) activity was assessed colorimetrically in 0.1 M K/Na phosphate buffer pH 8.0, 25 °C, by measuring the absorbance of 4-nitrophenol at 405 nm. Final enzyme and substrate (4-NPA) concentrations were 0.02 unit/mL and 1 mM, respectively. Reagent blanks included all constituents except enzyme.
Test compounds were dissolved in DMSO. Reaction mixtures contained a final DMSO concentration of 2% (v/v). Enzyme inhibition was first assessed at a single concentration of 20 µM for each compound after a 5 min incubation at 25 °C in three separate experiments. […] Substrate was then added and residual enzyme activity relative to an inhibitor-free control was measured using a Bio-Rad Benchmark Plus microplate reader (Marnes-la-Coquette, France).
Measurements were performed in a Bio-Rad Benchmark Plus microplate reader. Each experiment was performed in triplicate. Plots, linear regressions and values of IC50, were determined using Origin 6.1 for Windows, OriginLab (Northampton, MA, USA). Results were calculated using GraphPad Prism version 6.05 for Windows, GraphPad Software (La Jolla, CA, USA) and presented as mean ± SEM.

[9] = molecular target: T2, equine serum butyrylcholinesterase (BChE, EC 3.1.1.8) (Equus caballus, UniProt P81908); assay: Inhibition of equine serum butyrylcholinesterase (Ellman assay); assay type: biochemical; conditions: read-out: Inhibition % at 20 µM, Equine BChE
T2 construct: equine serum butyrylcholinesterase (BChE, EC 3.1.1.8); purchased Sigma-Aldrich (Saint Louis, MO, USA); host or cells: equine serum
Procedure, shortened: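 Ellman colorimetric assay with 0.02 unit/mL BChE, 1 mM butyrylthiocholine iodide and 0.33 mM DTNB, 2% (v/v) DMSO final; substrate added after enzyme-compound mixing. Residual activity versus inhibitor-free control, blanks without enzyme; triplicates, IC50 by linear regression.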

[10] = test system: Candida albicans RCPF Y 401/NCTC 885/653; assay: Antifungal susceptibility testing, C. albicans; conditions: NCTC885, read-out: MIC for fungi strains inhibition, C. albicans
Description: as §3

HeLa tumor cell line = assay: Cytotoxicity against HeLa cells (MTT assay); assay type: cell-based, human; conditions: Homo sapiens, HeLa, 72 h, read-out: IC50, HeLa
Description: (§2) Cytotoxicity of compounds was evaluated using a culture of human dermal fibroblasts, which were isolated in the Laboratory of Cell Cultures of the Institute of Medical Cell Technologies, Ekaterinburg, Russia and a HeLa tumor cell line obtained at the shared research facility «Vertebrate cell culture collection» of the Institute of Cytology of the Russian Academy of Sciences, St. Petersburg, Russia. Cells were seeded in 96-well plates in the inoculum dose of 2 × 10^5 cells/mL and cultured for 24 h in DMEM, with 1% glutamine in the presence of 10% fetal bovine serum and gentamicin (50 mg/L) at 37 °C, with humidified atmosphere of 5% CO2. Then compounds, which were dissolved in DMSO, were added to the wells at the final concentrations of 10^–7, 10^–6, 10^–5 and 10^–4 M. The cells were incubated with compounds for 72 h, after which cell viability was assessed using the standard MTT assay. The assay was carried out in four replicates with negative (culture medium), positive (solution of the cytotoxic drug camptothecin at a concentration of 3 mM) controls and the solvent control (DMSO). The results of the MTT assay were evaluated on a Tecan Infinite M200 PRO (Tecan Austria GmbH, Grödig, Austria) plate spectrophotometer by comparing the optical density of a formazan solution at 570 nm in the assay and control wells. The half maximal inhibitory concentrations (IC50) were calculated by AAT Bioquest-calculator (https://www.aatbio.com/tools/ic50-calculator (accessed on 14 November 2022)).

human dermal fibroblasts = assay: Cytotoxicity against human dermal fibroblasts (MTT assay); assay type: cell-based; conditions: Fibroblast, 72 h, read-out: IC50, Human Dermal Fibroblasts
Description: as §2

[11] = ABTS radical cation scavenging activity assay; design: key to ABTS•+-scavenging activity, TEAC (trolox equivalent antioxidant capacity): TEAC = ratio of compound slope to Trolox slope vs ABTS absorbance; conditions: mean ± SEM; for ABTS•+-scavenging activity, TEAC (trolox equivalent antioxidant capacity): n.a. = inactive
Procedure, shortened: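 ABTS•+ (from 7 mM ABTS plus 2.45 mM persulfate) mixed with compound, 5 × 10^–7–4 × 10^–4 M, 1 h at 30 °C; absorbance decrease read at 734 nm. TEAC from slope ratio versus Trolox; IC50 as 50% radical reduction for compounds exceeding 60% reduction at 100 µM.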

[12] = Ferric reducing antioxidant power (FRAP) assay; conditions: 20 μM; n.a. = inactive
Text: The FRAP assay measures the ability of anti-oxidants to reduce the ferric 2,4,6-tripyridyl-s-triazine complex [Fe(TPTZ)2]^3+ to the intensely blue ferrous colored complex [Fe(TPTZ)2]^2+ with an absorption maximum at λ = 593 nm. The reducing ability of a compound is an indicator of its potential anti-oxidant activity. 2,4,6-Tris(pyridin-2-yl)-1,3,5-triazine (TPTZ), FeCl3·6H2O, Trolox and DMSO were obtained from Sigma-Aldrich Chemical Co (St. Louis, MO, USA).
The ferric reducing ability of the compounds was determined by the method in microplate adapted version described in [116]. The FRAP reagent was prepared by mixing acetate buffer (0.3 M, pH 3.6), TPTZ (10 mM in 40 mM HCl) and FeCl3·6H2O (20 mM in distilled water) in a ratio of 10:1:1 immediately before use. Compounds were dissolved in DMSO and tested in the concentration 20 μM. The solvent content in the reaction mixture was 4% (v/v). The test compounds (10 μL of 0.5 mM solution) were added to the FRAP reagent solution (240 μL) and mixed thoroughly. The reaction was carried out at 37 °C in the dark; the incubation time was 1 h. The absorbance at 600 nm was monitored spectrophotometrically by a FLUOStar OPTIMA microplate reader (BMG Labtech, Ortenberg, Germany) at 37 °C. Trolox was used as a reference compound. Values were obtained from four replicates of each sample in three independent experiments.
The ferric reducing ability of compounds was expressed as TE units (antioxidant activity in Trolox equivalent), the values calculated as the ratio of the concentrations of Trolox and the test compound resulting in the same effect. The calculations were carried out using Origin 6.1 for Windows. Results were presented as mean ± SEM, calculated using GraphPad Prism version 6.05 for Windows, GraphPad Software.

[13] = 1 h, read-out: Latent Period Prolongation, % 1 h
[14] = 2 h, read-out: Latent Period Prolongation, % 2 h

T2 sequence (P81908 whole entry): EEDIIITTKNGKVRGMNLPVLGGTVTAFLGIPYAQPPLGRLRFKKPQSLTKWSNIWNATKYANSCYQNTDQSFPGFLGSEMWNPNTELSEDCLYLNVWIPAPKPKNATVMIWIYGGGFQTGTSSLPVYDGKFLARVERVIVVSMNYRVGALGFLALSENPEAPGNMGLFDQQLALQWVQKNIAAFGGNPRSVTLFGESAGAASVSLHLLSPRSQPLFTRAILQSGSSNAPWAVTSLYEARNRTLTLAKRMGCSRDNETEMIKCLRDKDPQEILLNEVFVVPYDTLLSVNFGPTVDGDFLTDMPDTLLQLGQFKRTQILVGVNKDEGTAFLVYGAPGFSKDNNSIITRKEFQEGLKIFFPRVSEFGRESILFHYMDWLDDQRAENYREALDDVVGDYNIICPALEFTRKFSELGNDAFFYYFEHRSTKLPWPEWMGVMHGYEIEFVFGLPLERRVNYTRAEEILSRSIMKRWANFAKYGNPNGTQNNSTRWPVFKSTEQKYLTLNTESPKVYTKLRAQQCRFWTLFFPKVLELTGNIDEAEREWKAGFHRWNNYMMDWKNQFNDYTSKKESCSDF
T1 sequence (P22303 32-617 isoform P22303-2 limits assumed): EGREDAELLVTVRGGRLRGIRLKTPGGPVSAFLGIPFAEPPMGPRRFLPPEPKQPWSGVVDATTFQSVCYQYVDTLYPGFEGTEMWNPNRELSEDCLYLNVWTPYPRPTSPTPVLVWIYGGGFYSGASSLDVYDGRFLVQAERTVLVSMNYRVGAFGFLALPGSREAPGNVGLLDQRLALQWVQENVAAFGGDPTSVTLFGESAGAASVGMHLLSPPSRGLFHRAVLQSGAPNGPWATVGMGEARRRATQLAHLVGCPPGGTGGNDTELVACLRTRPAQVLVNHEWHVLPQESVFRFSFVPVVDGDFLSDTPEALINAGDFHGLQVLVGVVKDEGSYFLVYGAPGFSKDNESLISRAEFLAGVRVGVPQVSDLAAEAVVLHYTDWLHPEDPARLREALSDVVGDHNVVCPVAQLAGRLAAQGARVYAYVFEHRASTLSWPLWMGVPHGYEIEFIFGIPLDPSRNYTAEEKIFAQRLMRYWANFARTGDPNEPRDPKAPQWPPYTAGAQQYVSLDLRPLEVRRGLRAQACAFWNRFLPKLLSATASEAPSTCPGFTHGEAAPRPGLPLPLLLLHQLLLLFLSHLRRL
Sequence of porcine liver carboxylesterase (CES, EC 3.1.1.1) (Q29550 19-566): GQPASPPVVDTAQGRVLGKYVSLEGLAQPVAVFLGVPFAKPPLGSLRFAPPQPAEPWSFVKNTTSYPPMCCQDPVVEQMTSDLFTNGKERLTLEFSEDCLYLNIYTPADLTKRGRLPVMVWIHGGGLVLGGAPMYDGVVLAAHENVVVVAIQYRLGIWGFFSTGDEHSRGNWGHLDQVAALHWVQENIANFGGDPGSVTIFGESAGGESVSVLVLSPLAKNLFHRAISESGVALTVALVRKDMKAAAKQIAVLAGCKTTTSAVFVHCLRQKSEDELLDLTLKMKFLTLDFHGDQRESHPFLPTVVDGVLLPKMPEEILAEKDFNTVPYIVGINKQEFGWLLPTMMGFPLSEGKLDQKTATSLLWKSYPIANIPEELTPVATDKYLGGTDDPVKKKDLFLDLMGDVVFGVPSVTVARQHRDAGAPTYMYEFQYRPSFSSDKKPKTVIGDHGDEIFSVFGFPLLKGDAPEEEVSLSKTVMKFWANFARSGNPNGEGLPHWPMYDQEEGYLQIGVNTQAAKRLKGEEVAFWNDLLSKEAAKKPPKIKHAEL

| SMILES | MIC [1] [µg/mL] | ORAC-FL (TE, antioxidant activity in Trolox equivalents) [2] | MIC [3] [µg/mL] | survival at 14 days [4] [%] | MIC [5] [µg/mL] | inhibition at 20 µM [6] [%] | MIC [7] [µg/mL] | change in vivo at 15 mg/kg (Sprague-Dawley (SD) rats; [13]) [%] | change in vivo at 15 mg/kg (Sprague-Dawley (SD) rats; [14]) [%] | inhibition at 20 µM [8] [%] | inhibition at 20 µM [9] [%] | MIC [10] [µg/mL] | IC50 [11] [µM] | ABTS•+-scavenging activity, TEAC (trolox equivalent antioxidant capacity) [11] | FRAP (TE, antioxidant activity in Trolox equivalents) [12] | further results |
| --- | --- | --- | --- | --- | --- | --- | --- | --- | --- | --- | --- | --- | --- | --- | --- | --- |
| O=C1/C(=N\Nc2ccc(Br)cc2)C(C(F)(F)F)=NN1c1ccccc1 [5k, (4Z)-4-[2-(4-Bromophenyl)hydrazinylidene]-2-phenyl-5-(trifluoromethyl)-2,4-dihydro-3H-pyrazol-3-one] | > 200 | i.t.s. | > 200 | 100 | 31.2 (≈ 75.9 µM) | 5.4 ± 0.9 | > 200 | 89 | 76 | 23.2 ± 2 | 6 ± 1.1 | > 200 | – | – | – | – |
| CS(=O)(=O)c1ccc(N/N=C2\C(=O)N(c3ccccc3)N=C2C(F)(F)C(F)(F)F)cc1 [6h, (4Z)-4-(2-[4-(Methylsulfonyl)phenyl]hydrazinylidene)-5-(pentafluoroethyl)-2-phenyl-2,4-dihydro-3H-pyrazol-3-one] | > 200 | i.t.s. | > 200 | 100 | 250 (≈ 543 µM) | 4.1 ± 0.8 | > 200 | 80 | 98 | 30.8 ± 2.7 | 5.2 ± 0.9 | > 200 | – | – | – | – |
| CC[C@@]1(O)C(=O)OCc2c1cc1n(c2=O)Cc2cc3ccccc3nc2-1 [Camptothecin, reference compound] | – | – | – | – | – | – | – | – | – | – | – | – | – | – | – | IC50 (HeLa tumor cell line): 1.08 ± 0.98 µM; IC50 (human dermal fibroblasts): 5.38 ± 0.48 µM |
| COc1cccc2c1C(=O)c1c(O)c3c(c(O)c1C2=O)C[C@@](O)(C(=O)CO)C[C@@H]3O[C@H]1C[C@H](N)[C@H](O)[C@H](C)O1 [Doxorubicin, reference compound] | – | – | – | – | – | – | – | – | – | – | – | – | – | – | – | IC50 (HeLa tumor cell line; MTT, n.a. = inactive): 4.25 ± 0.55 µM; IC50 (human dermal fibroblasts; MTT, n.a. = inactive): 2.72 ± 0.26 µM |
| CC1=NN(c2ccccc2)C(=O)C1 [Edaravone, reference compound] | – | 3.71 ± 0.06 | – | – | – | – | – | – | – | – | – | – | 21.4 ± 1.8 | 0.96 ± 0.04 | 0.80 ± 0.01 | – |
| Cc1c(C)c2c(c(C)c1O)CCC(C)(C(=O)O)O2 (stereo not drawn) [Trolox, 6-hydroxy-2,5,7,8-tetramethychroman-2-carboxylic acid, reference compound] | – | 1.0 | – | – | – | – | – | – | – | – | – | – | 19.7 ± 0.8 | 1.0 | 1.0 | – |
